Consider twelve compounds from article PMC9866866, “Antiviral Activity of Benzoheterocyclic Compounds from Soil-Derived Streptomyces jiujiangensis NBERC-24992” (Molecules, 2023).

≈ marks a conversion by molar mass, not a printed value. Where only a bound is given, the exact number is not on record here.

The term EC50 denotes the midpoint of the concentration-response curve. By viability is commonly meant the share of living cells, or the viability signal relative to a control.

The subject of one series is Vero cells. The conditions noted are these: for Cytotoxicity IC50 (CC50): African green monkey.
In series [1] the test system is PRV. Kind of series: microbe, parasite or virus in culture. In kind it is cell-based, Pseudorabies virus. Particulars: for EC50: Suid alphaherpesvirus 1, Vero, 48 h, read-out: Antiviral Activity EC50.
A further series relates to several viruses. The conditions noted are these: cited from earlier work.
The next series can be described thus: in vitro. The conditions noted are these: African green monkey.
Series [2] relates to various RNA and DNA viruses. The conditions noted are these: cited from earlier work.
The subject of series [3] is PRV. It counts as cell-based, Pseudorabies virus.
Series [4] deals with PRV. In kind it is cell-based, Pseudorabies virus. This is another data set of the same source.

`Nc1nc2c(ncn2COCCO)c(=O)[nH]1` [Acyclovir, reference compound]: in the series with Vero cells, the “Cytotoxicity IC50 (CC50)” value was greater than 20 µg/mL. The EC50 in the series with PRV [1] turned out to be 2.96 ± 1.48 µg/mL (≈ 13.1 µM).
As for `COC[C@@]1(CCC(C)=C(C)C)Nc2ccc(C(N)=O)cc2C[C@H]1Cl` [Benzastatin C], in the series with several viruses, the “antiviral activity against several viruses” value is given as “specific activities against several viruses”.
`COCC12CCC(C)(O)C(C)(C)C1Cc1cc(C(=O)O)ccc1N2` (stereo not drawn) [Compound 1, Virantmycin D]: in the series on Vero cells, the “Cytotoxicity IC50 (CC50)” value was greater than 20 µg/mL. Further, the EC50 with PRV [1] was greater than 20 µg/mL.
As for `COCC(O)(CCC1(C)OC1(C)C)C1Cc2cc(C(=O)O)ccc2N1` (stereo not drawn) [Compound 2, Virantmycin E], the “Cytotoxicity IC50 (CC50)” value in the series with Vero cells was greater than 20 µg/mL. Moreover, the EC50 in the series on PRV [1] was greater than 20 µg/mL.
Consider `COC[C@@]1(CCC(CO)=C(C)C)Nc2ccc(C(=O)O)cc2C[C@H]1Cl` [Compound 3, Virantmycin F], for which the “Cytotoxicity IC50 (CC50)” value in the series on Vero cells is greater than 20 µg/mL. This compound came in with a viability in “in vitro” of 80%. Besides, the EC50 with PRV [1] was 1.74 ± 0.25 µg/mL (≈ 4.73 µM).
On to `COCC1(CCC(C)=C(C)C)Nc2ccc(C(=O)O)cc2CC1Cl` (stereo not drawn) [Compound 4, virantmycin], for which, in series [2], the “antiviral activity against various RNA and DNA viruses” value was “significant antiviral activity”. The “virus infection in PRV-infected cells (indirect immunofluorescence)” value in the series with PRV [3] is given as “significantly reduced”. In addition, in the series with Vero cells, the “toxic effect on the tested cells” value is reported as “does not show any toxic effect” and the “Cytotoxicity IC50 (CC50)” value is greater than 20 µg/mL. The “PRV proliferation (qPCR, PRV gE)” value in the series on PRV [4] was “inhibits PRV proliferation in a dose–dependent manner”. Also, in the series on PRV [1], the “cells alive (protection of Vero cells against PRV)” value is “more than 50%” and the concentration for a half-maximal effect (EC50) was less than 0.31 µg/mL.
For `COC[C@@]1(CCC(C)=C(C)C)Nc2ccc(C(=O)O)cc2C[C@H]1O` [Compound 5, A-503451 D], the “Cytotoxicity IC50 (CC50)” value with Vero cells was greater than 20 µg/mL. For the same compound, in the series with PRV [1], the EC50 was greater than 20 µg/mL.
As to `COC[C@@]1(CCC(C)=C(C)C)Nc2ccc(C(=O)O)cc2C[C@H]1OC(C)=O` [Compound 6, A-503451 D acetylate], the “Cytotoxicity IC50 (CC50)” value with Vero cells was greater than 20 µg/mL. In addition, the EC50 in the series with PRV [1] is greater than 20 µg/mL.
In the case of `COC[C@@](Cl)(CCC(C)=C(C)C)[C@@H]1Cc2cc(C(=O)O)ccc2N1` [Compound 7, A-503451 A], the EC50 in the series with PRV [1] turned out to be 6.46 ± 1.38 µg/mL (≈ 18.4 µM).
As to `COCC(O)(CCC(C)=C(C)C)C1Cc2cc(C(=O)O)ccc2N1` (stereo not drawn) [Compound 8, A-503451 B], the “Cytotoxicity IC50 (CC50)” value in the series on Vero cells was greater than 20 µg/mL. Further, the concentration giving a half-maximal response (EC50) in the series on PRV [1] was greater than 20 µg/mL.
For the compound `NC(=O)c1ncn([C@@H]2O[C@H](CO)[C@@H](O)[C@H]2O)n1` [Ribavirin, reference compound], in the series with Vero cells, the “Cytotoxicity IC50 (CC50)” value was greater than 20 µg/mL. For the same compound, the EC50 in the series on PRV [1] came out at 4.44 ± 1.53 µg/mL (≈ 18.2 µM).
For the compound `COC[C@@]1(CCC(C)=C(C)C)Nc2ccc(C(N)=O)cc2C[C@H]1O` [benzastatin D], in the series on several viruses, the “antiviral activity against several viruses” value was “inactive”.
